{"source": "patent US20020160012A1", "about": "“Vaccine chip technology exploiting immunostimulating fragment of TGF-BETA” (priority 2000, published 2002)", "key": {"parvovirus peptide [1]": {"system": "parvovirus peptide", "assay": "Rabbit immunisation with parvovirus peptide, TGF-29 dose and Titermax adjuvant, serum ELISA (Example 3)", "type": "in vivo, rabbits", "details": "bleeding T3 (6 weeks after first immunisation); 20 ug TGF-29 + 100 ug parvovirus peptide + Titermax (preparation Iris)", "experimental": "Both preparations were subcutaneously injected into 2 groups of rabbits. Each injected dose was 0, 1 mL and the preparations for a resulting volume between 0,4 and 0,5 mL was made as follows:\nThe rabbits were then immunised according to the normal standard immunisation procedure for antibody production in rabbits at a legal laboratory animal facility.\n(§1) Before immunisation, a pre-immunisation serum sample (T0) of each rabbit was collected. Before each of the following immunisations (given at 2 week intervals) an immune serum sample (T1, T2, or T3) was collected from each rabbit.\n(§2) The serum samples were analysed on an ELISA plate according to standard laboratory operations: Coating the plate bottom with parvo virus peptide derivative overnight, washings, incubation with serial dilutions of all serum samples, washings, incubation with HRP-Goat anti Rabbit Ig, washings, incubation with substrate, stop reaction with acid, and reading of the plate."}, "parvovirus peptide [2]": {"system": "parvovirus peptide", "assay": "Rabbit immunisation with Parv or Parv+TGF-29, serum ELISA for antibody titre (Example 1)", "type": "in vivo, rabbits", "details": "immune serum samples vs corresponding T0 sera; 3 subcutaneous immunisations at 2 week intervals; freunds incomplete adjuvant", "experimental": "Both preparations were subcutaneously injected into 2 groups of rabbits. The content of each injected dose of 0.2 mL were:\nThe rabbits were immunised by subcuteous injection according to normal standard immunisation procedures for antibody production in rabbits at a legal laboratory animal facility.\n(§3) Before immunisation, a pre-immunisation serum sample (T0) of each rabbit were collected. Two weeks after the last of 3 immunisations (given at 2 week intervals) an immune serum sample (T1) was collected from each rabbit. Hereafter further immune serum samples were collected T2 (4 weeks after T1); T3 (four weeks after T2) etc.\nas §2"}, "[3]": {"assay": "Clinical signs of immunised rabbits", "type": "in vivo", "details": "Example 1; subcutaneous, 3 immunisations at 2 week intervals", "source_text": "as §3\nBefore immunisation, a pre-immunisation serum sample (T0) of each rabbit were collected. Before each of the following immunisations (given at 2 week intervals) an immune serum sample (T1, T2, T3 or T4 ) was collected from each rabbit. The serum sampling frequency is higher compared with example 1.\nas §1"}}, "note": "No end group written: not given here."}
{"substance": "ALDAAYCFRNVQDNCCLRPLYIDFKRDLG (cysteine pairing not given here) [TGF-29, N-terminal 29 amino acid fragment of mature TGF-β]", "values": [{"measurement": "titer to the parvovirus peptide compared with the corresponding T0 serum", "setting": "parvovirus peptide [1]", "value": "more than three 5-fold serial antiserum dilutions better"}, {"measurement": "titer to the parvovirus peptide, rank among all bleedings of the example", "setting": "parvovirus peptide [1]", "value": "highest titer"}]}
{"substance": "Ac-CDGAVQPDGGQPAVRNER-NH2 [Parv]", "values": [{"measurement": "antibody titre to the parvovirus peptide", "setting": "parvovirus peptide [2]", "value": "Non-detectable or less antibody titre to the parvovirus peptide than in the corresponding T0 sera"}, {"measurement": "unusual clinical signs", "setting": "[3]", "value": "None of the rabbits showed any unusual clinical signs"}]}
